The record followed here is ChEMBL document CHEMBL1909569 (Bioorg Med Chem Lett, 2011).

Each structure is given as a SMILES string. pIC50: −log10 of the molar value.

In general, pIC50 refers to the negative decadic logarithm of the IC50, by convention in mol/L. A high value points to a small IC50.

Test [1] concerns Mycobacterium tuberculosis. Nature of the test: (§1) Inhibition of Mycobacterium tuberculosis expressing RNA polymerase RpoB S450L mutant after 10 mins using ribo green by rolling circle transcription assay.
Test [2] in a line: as §1.
Test [3] relates to Mycobacterium tuberculosis. Nature of the test: Ratio of compound MIC90 to Rifampin S MIC90 for Mycobacterium tuberculosis RNA polymerase RpoB S450L mutant.
Test [4] concerns Mycobacterium tuberculosis. Description: Ratio of compound MIC90 to Rifamycin S MIC90 for Mycobacterium tuberculosis RNA polymerase RpoB S450L mutant.

The molecule `CO[C@H]1/C=C/O[C@@]2(C)Oc3c(C)c(SC)c4c(c3C2=O)C(=O)C=C(NC(=O)/C(C)=C\C=C\[C@H](C)[C@H](O)[C@@H](C)[C@@H](O)[C@@H](C)[C@H](OC(C)=O)[C@@H]1C)C4=O` displayed a logIC50 in test [1] of 1.57. This molecule also showed a pIC50 in test [2] of 4.43.
In test [1], `CO[C@H]1/C=C/O[C@@]2(C)Oc3c(C)c(NC4CCCCCC4)c4c(c3C2=O)C(=O)C=C(NC(=O)/C(C)=C\C=C\[C@H](C)[C@H](O)[C@@H](C)[C@@H](O)[C@@H](C)[C@H](OC(C)=O)[C@@H]1C)C4=O` came in with a logIC50 of 2.1. In test [2], this molecule gave a pIC50 of 3.90. The Ratio IC50 in test [3] is 3.
The like results for `CO[C@H]1/C=C/O[C@@]2(C)Oc3c(C)c(N(C)C)c4c(c3C2=O)C(=O)C=C(NC(=O)/C(C)=C\C=C\[C@H](C)[C@H](O)[C@@H](C)[C@@H](O)[C@@H](C)[C@H](OC(C)=O)[C@@H]1C)C4=O` were, in that order, 2.43, 3.57 and 3.
With `CO[C@H]1/C=C/O[C@@]2(C)Oc3c(C)c(O)c4c(c3C2=O)C(=O)C=C(NC(=O)/C(C)=C\C=C\[C@H](C)[C@H](O)[C@@H](C)[C@@H](O)[C@@H](C)[C@H](OC(C)=O)[C@@H]1C)C4=O` [RIFAMYCIN S], in test [1], the logIC50 is 1.56. The pIC50 in test [2] is 4.44.
The molecule `CO[C@H]1/C=C/O[C@@]2(C)Oc3c(C)c(O)c4c(c3C2=O)C(=O)C(/C=N/N2CCN(C)CC2)=C(NC(=O)/C(C)=C\C=C\[C@H](C)[C@H](O)[C@@H](C)[C@@H](O)[C@@H](C)[C@H](OC(C)=O)[C@@H]1C)C4=O` [RIFAMPIN S] returned a logIC50 in test [1] of 1.67. The molecule also had a pIC50 in test [2] of 4.33.
Regarding `CO[C@H]1/C=C/O[C@@]2(C)Oc3c(C)c(N)c4c(c3C2=O)C(=O)C=C(NC(=O)/C(C)=C\C=C\[C@H](C)[C@H](O)[C@@H](C)[C@@H](O)[C@@H](C)[C@H](OC(C)=O)[C@@H]1C)C4=O`, the logIC50 in test [1] turned out to be 2.27. The molecule also had a pIC50 in test [2] of 3.73. Also, the Ratio IC50 in test [3] worked out at 3.
As for `CO[C@H]1/C=C/O[C@@]2(C)Oc3c(C)c(OS(=O)(=O)c4ccc(C)cc4)c4c(c3C2=O)C(=O)C=C(NC(=O)/C(C)=C\C=C\[C@H](C)[C@H](O)[C@@H](C)[C@@H](O)[C@@H](C)[C@H](OC(C)=O)[C@@H]1C)C4=O`, the Ratio in test [4] came to 5. The same molecule gave a logIC50 in test [1] of 2.99. In addition, the pIC50 in test [2] is 3.01.
As to `CO[C@H]1/C=C/O[C@@]2(C)Oc3c(c4c5c(nn(CCO)c5c3C)C(=C(/C=N/N3CCN(C)CC3)C4=O)NC(=O)/C(C)=C\C=C\[C@H](C)[C@H](O)[C@@H](C)[C@@H](O)[C@@H](C)[C@H](OC(C)=O)[C@@H]1C)C2=O`, the logIC50 in test [1] turned out to be 1.48. The molecule also had a pIC50 in test [2] of 4.52.
